Experimental findings from patent US12441739B2, “Glucagon receptor antagonist and use thereof” (LANZHOU UNIVERSITY, priority 2021, dated 2025) are described below.

In the experiment the target is T1, human glucagon receptor (hGCGR) (Homo sapiens, UniProt P47871).
T1 construct: host or cells: HEK293
In words: HTRF second messenger cAMP response experiment (called cell viability test) in HEK293 cells with glucagon peptide segment. Format: cell-based. The note with it: for inhibitory activity of glucagon receptor (in words, from cAMP response curves): FIG. 5 / FIG. 14. The protocol:
In order to determine the antagonistic activity of the compound A on the glucagon receptor in the above embodiments, a cell viability test is carried out. The specific implementation is as follows.
A known human glucagon receptor (hGCGR) antagonist drug is selected as a positive control, and the compound A in the above embodiments, a glucagon peptide segment (that is, human full-length glucagon), and human embryonic kidney cells containing target receptor molecules are mixed. The glucagon peptide segment binds to hGCGR to activate the hGCGR signaling pathway and release the second messenger cAMP. The compound A acts as an antagonist to inhibit the activity of hGCGR.
In an exemplary embodiment, a known hGCGR antagonist drug (L-168,049) is selected as a positive control. […] In addition, in view of the human glucagon receptor on the cell membrane of human embryonic kidney cells HEK293, HEK293 is used to test the drug activity of the human glucagon antagonist. In this embodiment, different concentrations of compound A of the present disclosure and the positive control are respectively mixed with glucagon peptide segments and HEK293 cells, the second messenger cAMP is detected through homogeneous time resolved fluorescence (HTRF), and a half maximal inhibitory concentration value of each compound is calculated according to the intensity value of HTRF.
In an exemplary embodiment, the activity of the compound A is tested using the HTRF technique. Specifically, after activation of the glucagon receptor by the glucagon peptide segment, the second messenger cAMP is released from the glucagon receptor cells, the second messenger cAMP may be detected by HTRF, and the half maximal inhibitory concentration (IC50) of the tested compound may be calculated according to the fluorescence intensity.
In an exemplary embodiment, 11 identical concentration gradients are set for the compounds A1 and A2 respectively. The activities of the compounds A1 and A2 are determined by the HTRF second messenger cAMP response experiment in triplicate.
Step S910. Select an antagonist drug of hGCGR as a positive control, and mix each target drug small molecule, a glucagon peptide segment, and human embryonic kidney cells containing the target receptor molecule. The glucagon peptide segment binds to hGCGR to activate the hGCGR signaling pathway and release the second messenger cAMP. The target drug molecule acts as an antagonist to inhibit the activity of hGCGR.
In an exemplary embodiment, an antagonist drug (such as L-168,049) of hGCGR is selected as a positive control. In addition, in view of the human glucagon receptor on the cell membrane of human embryonic kidney cells (such as HEK293), HEK293 may be used to test the drug activity of the human glucagon antagonist. The target drug small molecule, the glucagon peptide segment, and the HEK293 cells containing the target receptor molecule are mixed. The glucagon peptide segment is used to bind to hGCGR to activate the hGCGR signaling pathway and promote the release of the second messenger cAMP. The target drug molecule acts as an antagonist to inhibit the activity of hGCGR.
Step S920. Detect the second messenger cAMP through HTRF, and determine a half maximal inhibitory concentration value of each target drug small molecule according to an intensity value of HTRF.
In an exemplary embodiment, the activity of each target drug small molecule (such as 30 target drug small molecules shown in Table 2) is tested by using the HTRF technique. Specifically, after activation of the glucagon receptor by the glucagon peptide segment, the second messenger cAMP is released from the glucagon receptor cells, the second messenger cAMP may be detected by HTRF, and the half maximal inhibitory concentration (IC50) of the drug molecule may be calculated according to the fluorescence intensity. […]
In general terms: In TR-FRET formats the signal depends on donor and acceptor labels being close together.

Where [1] appears, read: concentration gradient LogM −9.294091, HEK293 cells, glucagon peptide segment, HTRF cAMP, triplicate columns.
The mark [2] stands for this setting: concentration gradient LogM −5.477121, HEK293 cells, glucagon peptide segment, HTRF cAMP, triplicate columns.
[3] abbreviates: concentration gradient LogM −8.339849, HEK293 cells, glucagon peptide segment, HTRF cAMP, triplicate columns.
Setting [4] is: concentration gradient LogM −6.908485, HEK293 cells, glucagon peptide segment, HTRF cAMP, triplicate columns.
[5] abbreviates: concentration gradient LogM −5, HEK293 cells, glucagon peptide segment, HTRF cAMP, triplicate columns.
Where [6] appears, read: concentration gradient LogM −5.954243, HEK293 cells, glucagon peptide segment, HTRF cAMP, triplicate columns.
The mark [7] stands for this setting: concentration gradient LogM −7.385606, HEK293 cells, glucagon peptide segment, HTRF cAMP, triplicate columns.
Where [8] appears, read: concentration gradient LogM −7.862728, HEK293 cells, glucagon peptide segment, HTRF cAMP, triplicate columns.

Values joined by “and” are separate entries in the source; they are usually repeats but may differ in a detail not shown here. Equal values may be shown once. Read-outs that look alike come from different tables or passages of the source.

T1 sequence (P47871 26-477): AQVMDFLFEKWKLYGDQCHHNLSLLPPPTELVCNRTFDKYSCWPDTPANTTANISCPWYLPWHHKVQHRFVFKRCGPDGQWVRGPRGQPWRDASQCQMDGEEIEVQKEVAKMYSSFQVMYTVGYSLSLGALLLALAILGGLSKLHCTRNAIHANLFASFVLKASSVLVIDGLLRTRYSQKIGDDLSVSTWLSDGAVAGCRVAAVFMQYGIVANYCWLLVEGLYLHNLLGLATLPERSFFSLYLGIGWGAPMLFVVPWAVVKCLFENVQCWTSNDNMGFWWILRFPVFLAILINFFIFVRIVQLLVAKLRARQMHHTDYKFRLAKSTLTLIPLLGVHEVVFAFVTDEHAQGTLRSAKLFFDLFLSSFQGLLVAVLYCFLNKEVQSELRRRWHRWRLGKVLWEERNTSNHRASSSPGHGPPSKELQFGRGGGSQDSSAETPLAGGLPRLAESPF

In general, IC50 refers to the concentration that inhibits the measured activity by half. Read a high IC50 as lower potency. `O=S(=O)(NCCc1ccccc1)c1ccc(NC(=S)Nc2ccccc2)cc1` [Compound C2] displayed an IC50 greater than 10 µM. The Inhibition percentage under setting [1] was 1.325% and 0.8006% and 5.407%.
As to `CC(C)(C)NC(=O)NC(=O)CSc1nc(-c2cccs2)c(-c2cccs2)[nH]1` [Compound C25], the IC50 was greater than 10 µM.
With `NS(=O)(=O)c1ccc(NC(=S)NNC(=S)NC2CCCCC2)cc1` [Compound C1], the IC50 was greater than 10 µM. Besides, the Inhibition percentage under setting [2] was −14.4564% and −9.717% and −14.5956%. For the same compound, under setting [3], the Inhibition percentage was 23.36% and 11.78% and 18.98%.
Consider `Cn1c(CNC(=O)c2cccs2)nnc1SCC(=O)Nc1ccc(Cl)cc1` [Compound C29], for which the IC50 was greater than 10 µM.
On the same count and under the same terms, the result for `CNC(=O)NC(=O)CSc1nc2cc(-c3ccc(F)cc3)sc2c(=O)n1N` [Compound C30] reads greater than 10 µM.
`O=C(COC(=O)CCNC(=O)c1ccsc1)NC(=O)NCc1cccs1` [Compound C20] registered an IC50 greater than 10 µM.
As to `O=C(CCNC(=O)c1ccccc1)NCc1cccc(NC(=O)C2CC2)c1` [Compound C16], the IC50 was greater than 10 µM. Besides, under setting [4], the Inhibition percentage is −5.221% and −7.477% and −6.358%. For the same compound, the Inhibition percentage (concentration gradient LogM −8.81697, HEK293 cells, glucagon peptide segment, HTRF cAMP, triplicate columns) was −7.7562% and −6.836% and −15.6271%.
Consider `COc1cc(NC(=O)CNC(=O)CNC(=O)c2cccs2)c(OC)cc1Cl` [Compound C26], for which the 50% inhibitory concentration (IC50) is greater than 10 µM.
Regarding `CCCOc1ccc(Br)cc1-c1cc(-c2ccc(Cl)cc2)[nH]c1-c1ccncc1` [L-168,049, 4-[3-(5-bromo-2-propoxyphenyl)-5-(4-chlorophenyl)-1H-pyrrol-2-yl]pyridine, reference compound], where the note is “HEK293, cAMP HTRF, 11 concentrations, L-168,049 positive control per group of ten compounds”, the IC50 is 0.0615 µM and 0.0422 µM. In addition, the Inhibition percentage is, setting by setting: under setting [5], 100.4281% and 100.5604% and 100.8895%; (concentration gradient LogM −5, triplicate, HEK293, cAMP HTRF) 100.4281 percentage; under setting [2], 98.6132% and 96.62% and 98.1315%; (concentration gradient LogM −5.477121, triplicate, HEK293, cAMP HTRF) 98.6132 percentage; under setting [6], 98.05% and 95.17% and 94.46%; (concentration gradient LogM −5.954243, triplicate, HEK293, cAMP HTRF) 98.05 percentage. Besides, the Inhibition percentage (concentration gradient LogM −6.431364, HEK293 cells, glucagon peptide segment, HTRF cAMP, triplicate columns) was 93.05% and 91.9% and 88.0059%; the Inhibition percentage (concentration gradient LogM −6.431364, triplicate, HEK293, cAMP HTRF) is on record as 93.05 percentage; the Inhibition percentage under setting [4] is 89.46% and 74.79% and 78.16%; the Inhibition percentage (concentration gradient LogM −6.908485, triplicate, HEK293, cAMP HTRF) is reported as 89.46 percentage; the Inhibition percentage under setting [7] is 46.69% and 16.31%; the Inhibition percentage (concentration gradient LogM −7.385606, triplicate, HEK293, cAMP HTRF) is listed as 47.8261 percentage. The Inhibition percentage was 33.52% and 15.3532% under setting [8]; 28.98 percentage (concentration gradient LogM −7.862728, triplicate, HEK293, cAMP HTRF); −19.5336% and −9.209% under setting [3]; 3.941 percentage (concentration gradient LogM −8.339849, triplicate, HEK293, cAMP HTRF); −8.051 percentage (concentration gradient LogM −8.81697, triplicate, HEK293, cAMP HTRF); 19.0859% and −1.84% under setting [1]. For the same compound, the Inhibition percentage is, setting by setting: (concentration gradient LogM −9.294091, triplicate, HEK293, cAMP HTRF) −3.763 percentage; (concentration gradient LogM −9.771213, HEK293 cells, glucagon peptide segment, HTRF cAMP, triplicate columns) −1.911% and 6.132% and 1.646%; (concentration gradient LogM −9.771213, triplicate, HEK293, cAMP HTRF) −1.911 percentage.
Take `O=C(CCNC(=O)NC1CCCCC1)NNc1ccccc1C(F)(F)F` [Compound C27]: the IC50 was greater than 10 µM. Further, the Inhibition percentage under setting [3] is −24.7315% and −29.8299% and −20.459%.
Turning to `Cc1ccc(-c2csc(NC(=O)c3ccc4c(c3)NC(=O)CS4)n2)c(C)c1` [Compound C23], the Inhibition percentage under setting [5] is 75.66% and 75.14% and 57.58%.
`O=C(CNC(=O)NCCCN1CCCCCC1=O)Nc1ccc(F)c(F)c1` [Compound C22] displayed an IC50 greater than 10 µM. For the same compound, the Inhibition percentage under setting [7] was −5.735% and 1.578% and −3.875%.
As for `CC(=O)c1ccccc1NC(=O)c1c(O)c2c3c(sc2[nH]c1=O)C[C@H](C)CC3` [Compound C11], the IC50 was greater than 10 µM. The Inhibition percentage under setting [5] was 21.46% and 27.01% and 27.99%. Besides, under setting [3], the Inhibition percentage is 11.37% and 16.25% and 12.52%.
Turning to `COc1ccc(NC(=O)c2c(O)c3c4c(sc3[nH]c2=O)C[C@@H](C)CC4)cc1Cl` [Compound C13, (7S)—N-(3-chloro-4-methoxyphenyl)-4-hydroxy-7-methyl-2-oxo-5,6,7,8-tetrahydro-1H-[1]benzothiolo[2,3-b]pyridine-3-carboxamide], the IC50 turned out to be 0.446 µM and the “inhibitory activity of glucagon receptor (in words, from cAMP response curves)” value is “have the activity”. The “inhibitory activity of glucagon receptor (in words, from cAMP response curves)” value (listed as A1) is given as “good inhibitory activity of glucagon receptor”. Moreover, the Inhibition percentage under setting [5] is 98.37% and 95.2799% and 96.15%. In addition, the Inhibition percentage (concentration gradient LogM −5, triplicate, HEK293, cAMP HTRF, listed as A1) was 98.37 percentage and 95.2799 percentage and 96.15 percentage. Moreover, the Inhibition percentage under setting [2] is 87.84% and 83.28% and 83.51%. Also, for the setting “concentration gradient LogM −5.477121, triplicate, HEK293, cAMP HTRF, listed as A1”, the Inhibition percentage is 87.84 percentage and 83.28 percentage and 83.51 percentage. Moreover, the Inhibition percentage under setting [6] is 75.44% and 83.24% and 79.3%. Besides, the Inhibition percentage (concentration gradient LogM −5.954243, triplicate, HEK293, cAMP HTRF, listed as A1) is 75.44 percentage and 83.24 percentage and 79.3 percentage. The Inhibition percentage under setting [8] is 7.62% and −2.135% and −0.781%.
`O=C(NNC(=S)Nc1ccccc1)[C@H](O)[C@@H](O)C(=O)NNC(=S)Nc1ccccc1` [Compound C7] returned an IC50 greater than 10 µM. Also, under setting [8], the Inhibition percentage was −25.3779% and −25.5195% and −24.1306%. Further, the Inhibition percentage under setting [1] is −8.847% and −15.2446% and −18.5536%.
As to `CSc1cccc(NC(=O)CCNS(=O)(=O)c2ccc(NC(C)=O)cc2)c1` [Compound C17], the IC50 was greater than 10 µM.
`O=C(CCCCC(=O)NNC(=S)Nc1ccc(Br)cc1)NNC(=S)Nc1ccc(Br)cc1` [Compound C6] gave an IC50 greater than 10 µM. Under setting [8], the Inhibition percentage is −28.7792% and −19.4453% and −24.9236%.
In turn, `O=C(CSc1nc2ccccc2[nH]1)NC(=O)Nc1ccc2c(c1)OCO2` [Compound C21] had an IC50 greater than 10 µM.
With `O=C(CNC(=O)NCCCOC1CCCCC1)Nc1ccc(F)c(F)c1` [Compound C19], the IC50 is greater than 10 µM.
In turn, `CS(=O)(=O)NCCOc1ccc(S(=O)(=O)NCCOc2ccccc2)cc1` [Compound C28] came in with an IC50 greater than 10 µM.
The same measure, in the same setting: the result for `CCC(=O)NC(=S)Nc1ccc(NC(=S)NC(=O)c2ccccc2OC)cc1` [Compound C8] reads greater than 10 µM.
